Patent publication US12115178B2, “Acylated active agents and methods of their use for the treatment of autoimmune disorders” (Flagship Pioneering Innovations V, Inc., priority 2018, dated 2024)

Assays:
Assay type in all cases: in vitro ADME
[1] = Assay 2. Stability in Simulated Intestinal Fluid (SIF); details: SIF pH 6.7 with pancreatin, 1 μM, 37° C.
Description: Assay 2. Stability of acylated active agents in Simulated Intestinal Fluid (SIF). This assay was used to assess the stability of an acylated active agent in a small intestine. Phosphate buffer was prepared by dissolving 0.42 g of sodium hydroxide pellets and 3.95 g of monobasic sodium phosphate monohydrate and 6.19 g of sodium chloride in ultrapure water (MilliQ®, Millipore Sigma, Darmstadt, Germany). The pH was adjusted to 6.7 using aq. HCl and aq. NaOH, as necessary, and the solution was diluted with ultrapure water to produce 1 L of the pH 6.7 buffer. 112 mg FaSSIF powder (Biorelevant™, London, UK) was dissolved in 50 mL of the pH 6.7 buffer. 2 to 3 mL of the resulting solution were then added to 500 mg pancreatin (Millipore Sigma, Darmstadt, Germany). The resulting mixture was agitated by finger tapping the vessel containing the mixture until milky suspension formed. At this time, the remainder of the 50 mL FaSSiF/pH 6.7 buffer solution was added. The resulting suspension was flipped upside down 10 times to produce SIF, which was used fresh. Test compounds were dissolved in DMSO stock to 1 mM. An aliquot of the DMSO stock solution was removed and diluted in the SIF media in 15 mL falcon tubes to produce a mixture with a tested compound concentration of 1 μM. A 1 mL aliquot was immediately removed and diluted once with 1 volume of acetonitrile for T0 timepoint. The mixture was sealed and agitated at 37° C. in an incubator. Aliquots (1 mL) were removed at regular intervals and immediately quenched by the addition of 1 volume of acetonitrile. The resulting samples were analyzed by LC/MS to determine degradation rates.

[2] = Assay 3. In vitro Colonic Material Stability Assay
Description: Assay 3. In vitro Colonic Material Stability Assay. This assay was used to assess the stability of an acylated active agent in a large intestine. All experiments were performed in an anaerobic chamber containing 90% nitrogen, 5% hydrogen and 5% carbon dioxide. Colonic material was resuspended as a slurry (15% w/v final concentration) in pre-reduced, anaerobically sterilized dilution blanks (Anaerobe Systems AS-908). The colonic material was then inoculated into 96 well plates containing YCFAC media (Anaerobe Systems AS-680) or other suitable media (6.7 μL slurry into 1 mL total media). Compounds or groups of compounds were added to each individual well to reach a final analyte concentration of 1 or 10 μM, and the material was mixed by pipetting. Sample was removed after set timepoints (0, 120, 240, 480, 1440, 2880 minutes after initiation of the assay), quenched with acetonitrile containing internal standard, and analyzed by LC/MS.

[3] = Assay 1. Stability in Simulated Gastric Fluid (SGF); details: SGF pH 1.6 with pepsin, 1 μM, 37° C.
Description: Assay 1. Stability of acylated active agents in Simulated Gastric Fluid (SGF). This assay was used to assess the stability of an acylated active agent in a stomach.
Medium was prepared by dissolving 2 g of sodium chloride in 0.6 L in ultrapure water (MilliQ®, Millipore Sigma, Darmstadt, Germany). The pH was adjusted to 1.6 with 1N hydrochloric acid, and the volume was then adjusted to 1 L with purified water.
60 mg FaSSIF powder (Biorelevant™, London, UK) were dissolved in 500 mL buffer (above). Pepsin was added (0.1 mg/mL) (Millipore Sigma, Darmstadt, Germany), and the solution was stirred. The resulting SGF media were used fresh for each experiment.
Test compounds were dissolved in DMSO stock to 1 mM. An aliquot of the DMSO stock solution was removed and diluted in the SGF Media in 15 mL falcon tubes to generate a total compound concentration of 1 μM. A 1 mL aliquot was immediately removed and diluted once with 1 volume of acetonitrile for T0 timepoint. The mixture was sealed and mixed at 37° C. in an incubator. Aliquots (1 mL) were removed at regular intervals and immediately quenched by the addition of 1 volume of acetonitrile. The resulting samples were analyzed by LC/MS to determine degradation rates in SGF.

[4] = colonic material slurry, anaerobic, 1 or 10 μM

Row | Compound | Assay 2 (SIF) (% @ Remaining 4 hours) [1] | Assay 3 (% Remaining at 24 h) [2, 4] | Assay 1 (SGF) (% Remaining @ 1 hour) [3] | other results
1 | CCCC(=O)Oc1cc(OC(=O)CCC)c2c(c1)O[C@H](c1cc(OC(=O)CCC)c(OC(=O)CCC)c(OC(=O)CCC)c1)[C@H](OC(=O)c1cc(OC(=O)CCC)c(OC(=O)CCC)c(OC(=O)CCC)c1)C2 [Compound 1, [(2R,3R)-5,7-di(butanoyloxy)-2-[3,4,5-tri(butanoyloxy)phenyl]chroman-3-yl] 3,4,5-tri(butanoyloxy)benzoate] | C (>75% of the tested compound remaining) | B (25-75% of the tested compound remaining) | – | –
2 | CCC(=O)Oc1cc(OC(=O)CC)c2c(=O)c(OC(=O)CC)c(-c3ccc(OC(=O)CC)c(OC(=O)CC)c3)oc2c1 [Compound 14, [4-[4-oxo-3,5,7-tri(propanoyloxy)chromen-2-yl]-2-propanoyloxy-phenyl] propanoate] | A (<25% of the tested compound remaining) | C (>75% of the tested compound remaining) | – | –
3 | C[C@@H]1OC(OC(=O)CCc2c[nH]c3ccccc23)[C@H](OC(=O)CCc2c[nH]c3ccccc23)[C@H](OC(=O)CCc2c[nH]c3ccccc23)[C@H]1OC(=O)CCc1c[nH]c2ccccc12 (stereo partly drawn) [Compound 147, (3R,4R,5S,6S)-3,4,5-tris({[3-(1H-indol-3-yl)propanoyl]oxy})-6-methyloxan-2-yl 3-(1H-indol-3-yl)propanoate] | – | A (<25% of the tested compound remaining) | – | –
4 | CCCC(=O)Oc1cc(OC(=O)CCC)c2c(=O)c(OC(=O)CCC)c(-c3cc(OC(=O)CCC)c(OC(=O)CCC)c(OC(=O)CCC)c3)oc2c1 [Compound 169, 3,5-bis(butanoyloxy)-4-oxo-2-[3,4,5-tris(butanoyloxy)phenyl]-4H-chromen-7-yl butanoate] | C (>75% of the tested compound remaining) | – | C (>75% of the tested compound remaining) | –
5 | CCCC(=O)Oc1cc(OC(=O)CCC)c2c(=O)cc(-c3ccc(OC(=O)CCC)c(OC(=O)CCC)c3)oc2c1 [Compound 171, 2-[3,4-bis(butanoyloxy)phenyl]-5-(butanoyloxy)-4-oxo-4H-chromen-7-yl butanoate] | A (<25% of the tested compound remaining) | – | C (>75% of the tested compound remaining) | –
6 | CCCC(=O)Oc1cc(OC(=O)CCC)c2c(=O)c(OC(=O)CCC)c(-c3ccc(OC(=O)CCC)c(OC(=O)CCC)c3)oc2c1 [Compound 181, [2-butanoyloxy-4-[3,5,7-tri(butanoyloxy)-4-oxo-chromen-2-yl]phenyl] butanoate] | A (<25% of the tested compound remaining) | – | C (>75% of the tested compound remaining) | –
7 | [2H]C([2H])([2H])C([2H])([2H])CC(=O)O[C@@H]1[C@@H](OC(=O)CC([2H])([2H])C([2H])([2H])[2H])[C@H](Oc2ccc(N)cc2C(=O)O)OC[C@H]1OC(=O)CC([2H])([2H])C([2H])([2H])[2H] [Compound 189, 5-amino-2-{[(2S,3R,4S,5R)-3,4,5-tris[(3,3,4,4,4-^2H5)butanoyloxy]oxan-2-yl]oxy}benzoic acid] | – | B (25-75% of the tested compound remaining) | – | –
8 | [2H]C([2H])([2H])C([2H])([2H])CC(=O)O[C@@H]1[C@@H](OC(=O)CC([2H])([2H])C([2H])([2H])[2H])[C@H](Oc2ccc(N)cc2C(=O)O)OC[C@H]1O [Compound 192, 5-amino-2-{[(2S,3R,4S,5R)-3,4-bis[(3,3,4,4,4-^2H5)butanoyloxy]-5-hydroxyoxan-2-yl]oxy}benzoic acid] | – | B (25-75% of the tested compound remaining) | – | –
9 | CC(=O)Oc1cc(OC(C)=O)c2c(c1)O[C@H](c1cc(OC(C)=O)c(OC(C)=O)c(OC(C)=O)c1)[C@H](OC(=O)c1cc(OC(C)=O)c(OC(C)=O)c(OC(C)=O)c1)C2 [Compound 197, [(2R,3R)-5,7-diacetoxy-2-(3,4,5-triacetoxyphenyl)chroman-3-yl] 3,4,5-triacetoxybenzoate] | – | A (<25% of the tested compound remaining) | – | –
10 | CCCC(=O)Oc1cc(OC(=O)CCC)c2c(c1)O[C@H](c1cc(OC(=O)CCC)c(OC(=O)CCC)c(OC(=O)CCC)c1)[C@H](OC(=O)c1cc(OC(=O)CCC)c(OC(=O)CCC)c(OC(=O)CCC)c1)C2 [Compound 198, [(2R,3R)-5,7-di(butanoyloxy)-2-[3,4,5-tri(butanoyloxy)phenyl]chroman-3-yl] 3,4,5-tri(butanoyloxy)benzoate] | – | – | – | Assay 3 (% Remaining at 24 h) ([2]; Run 1, colonic material): C (>75% of the tested compound remaining); Assay 3 (% Remaining at 24 h) ([2]; Run 2, colonic material): C (>75% of the tested compound remaining); Assay 3 (% Remaining at 24 h) ([2]; Run 3, colonic material): B (25-75% of the tested compound remaining)
11 | CC(=O)Oc1cc(C(=O)O)cc(OC(C)=O)c1OC(C)=O [Compound 199, 3,4,5-triacetoxybenzoic acid] | B (25-75% of the tested compound remaining) | – | C (>75% of the tested compound remaining) | –
12 | O=C(CCc1c[nH]c2ccccc12)Oc1cc(C(=O)O)cc(OC(=O)CCc2c[nH]c3ccccc23)c1OC(=O)CCc1c[nH]c2ccccc12 [Compound 202, 3,4,5-tris({[3-(1H-indol-3-yl)propanoyl]oxy})benzoic acid] | C (>75% of the tested compound remaining) | – | A (<25% of the tested compound remaining) | –
13 | CCC(=O)Oc1ccc2c(c1)oc(=O)c1cc(OC(=O)CC)c(OC(=O)CC)cc12 [Compound 204, [6-oxo-8,9-di(propanoyloxy)benzo[c]chromen-3-yl] propanoate] | A (<25% of the tested compound remaining) | – | C (>75% of the tested compound remaining) | –
14 | CCCC(=O)Oc1ccc2c(c1)oc(=O)c1cc(OC(=O)CCC)c(OC(=O)CCC)cc12 [Compound 210, 8,9-bis(butanoyloxy)-6-oxo-6H-benzo[c]chromen-3-yl butanoate] | – | A (<25% of the tested compound remaining) | – | –
15 | CC(=O)O[C@@H]1[C@H](OC(C)=O)C=C(C(=O)O)C[C@H]1OC(C)=O [Compound 215, (3R,4S,5R)-3,4,5-triacetoxycyclohex-1-ene-1-carboxylic acid] | – | B (25-75% of the tested compound remaining) | – | –
16 | O=C(CCc1c[nH]c2ccccc12)O[C@@H]1[C@H](OC(=O)CCc2c[nH]c3ccccc23)C=C(C(=O)O)C[C@H]1OC(=O)CCc1c[nH]c2ccccc12 [Compound 216, (3R,4S,5R)-3,4,5-tris({[3-(1H-indol-3-yl)propanoyl]oxy})cyclohex-1-ene-1-carboxylic acid] | B (25-75% of the tested compound remaining) | – | B (25-75% of the tested compound remaining) | –
17 | CCC(=O)O[C@@H]1[C@H](OC(=O)CC)C=C(C(=O)O)C[C@H]1OC(=O)CC [Compound 217, (3R,4S,5R)-3,4,5-tris(propanoyloxy)cyclohex-1-ene-1-carboxylic acid] | – | B (25-75% of the tested compound remaining) | – | –
18 | CCCC(=O)O[C@@H]1[C@H](OC(=O)CCC)C=C(C(=O)O)C[C@H]1OC(=O)CCC [Compound 218, (3R,4S,5R)-3,4,5-tris(butanoyloxy)cyclohex-1-ene-1-carboxylic acid] | – | B (25-75% of the tested compound remaining) | – | –
